Results from ChEMBL document CHEMBL1135315, “Spirocyclic NK(1) antagonists I: [4.5] and [5.5]-spiroketals” (Bioorg Med Chem Lett, 2002).

Legend:
Substance-P receptor [1] = target: T1, Substance-P receptor (Homo sapiens, UniProt P25103); experiment: Displacement of [125I]-labeled substance P from human Tachykinin receptor 1 expressed in CHO cells; format: cell-based
Substance-P receptor [2] = target: T1, Substance-P receptor; experiment: Percent displacement of [125I]-labeled substance P from the cloned human Tachykinin receptor 1 expressed in CHO cells at a concentration of 1 uM of the compound; format: cell-based
Gerbillinae = experiment: CNS penetration was assessed by compounds ability in gerbils to block the foot-tapping induced by central infusion of the NK1-selective agonist GR-73632 when administered intravenously; format: functional; settings: iv, read-out: ID50 (the source's name)
Substance-P receptor [3] = target: T1, Substance-P receptor; experiment: Displacement of [125I]-substance P from human Tachykinin receptor 1
Substance-P receptor [4] = target: T1, Substance-P receptor; experiment: Percent displacement of [125I]-labeled substance P from the cloned human Tachykinin receptor 1 expressed in CHO cells at 1 uM; format: cell-based

T1 sequence (P25103 whole entry): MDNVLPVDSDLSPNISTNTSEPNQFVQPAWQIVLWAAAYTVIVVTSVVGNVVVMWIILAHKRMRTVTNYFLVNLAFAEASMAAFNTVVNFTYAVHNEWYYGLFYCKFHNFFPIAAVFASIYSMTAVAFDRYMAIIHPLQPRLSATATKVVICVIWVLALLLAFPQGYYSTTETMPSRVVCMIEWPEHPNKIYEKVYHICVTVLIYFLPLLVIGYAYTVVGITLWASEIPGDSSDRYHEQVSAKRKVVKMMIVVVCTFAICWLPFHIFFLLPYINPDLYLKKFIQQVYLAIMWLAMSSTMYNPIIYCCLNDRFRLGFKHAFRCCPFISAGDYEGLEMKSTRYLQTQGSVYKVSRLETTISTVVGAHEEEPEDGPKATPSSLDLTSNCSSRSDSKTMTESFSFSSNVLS

Row | IC50 (Substance-P receptor [1]) | Structure (SMILES) | further results
1 | 10 nM | COc1ccc(F)cc1[C@H]1COCC2(C1)OCCN[C@H]2c1ccc(F)cc1 (stereo partly drawn) | –
2 | – | COc1ccc([C@H]2COCC3(C2)OCCN[C@H]3c2ccc(F)cc2)cc1 (stereo partly drawn) | Affinity (Substance-P receptor [2]): 27%
3 | – | Fc1ccc(C2NCCOC23CCC(c2ccc(C(F)(F)F)cc2)CO3)cc1 (stereo not drawn) | Affinity (Substance-P receptor [2]): 55%
4 | 1.1 nM | CN(C)Cc1nn[nH]c1CN1CCOC2(CCC(c3ccccc3C(F)(F)F)CO2)C1c1ccc(F)cc1 (stereo not drawn) | ED50 (Gerbillinae): 1.1 mg/kg
5 | 513 nM | Fc1ccc(C2NCCOC23CCC(c2cccc(C(F)(F)F)c2)CO3)cc1 (stereo not drawn) | –
6 | 183 nM | COc1cccc([C@H]2COCC3(C2)OCCN[C@H]3c2ccc(F)cc2)c1 (stereo partly drawn) | –
7 | 16 nM | COc1ccc(OC)c([C@H]2COCC3(C2)OCCN[C@H]3c2ccc(F)cc2)c1 (stereo partly drawn) | –
8 | 13 nM | COc1ccccc1[C@H]1COCC2(C1)OCCN[C@H]2c1ccc(F)cc1 (stereo partly drawn) | –
9 | 19 nM | O=c1[nH]nc(CN2CCOC3(CCC(c4ccccc4)CO3)C2c2ccccc2)[nH]1 (stereo not drawn) | –
10 | 30 nM | Fc1ccc([C@@H]2NCCOC23COC[C@H](c2cccc(C(F)(F)F)c2)C3)cc1 (stereo partly drawn) | –
11 | 170 nM | c1ccc(C2CCC3(OCCNC3c3ccccc3)OC2)cc1 (stereo not drawn) | –
12 | 2.8 nM | COc1ccc(C(C)C)cc1[C@H]1COCC2(C1)OCCN[C@H]2c1ccc(F)cc1 (stereo partly drawn) | –
13 | – | Fc1ccc([C@@H]2NCCO[C@@]23CC[C@@H](c2ccccc2C(F)(F)F)CO3)cc1 | IC50 (Substance-P receptor [3]): 28 nM
14 | – | Fc1ccc([C@@H]2NCCO[C@]23CC[C@@H](c2ccccc2C(F)(F)F)CO3)cc1 | Affinity (Substance-P receptor [4]): 47%
15 | – | Fc1ccc([C@@H]2NCCO[C@]23CC[C@H](c2ccccc2C(F)(F)F)CO3)cc1 | IC50 (Substance-P receptor [3]): 400 nM
16 | 0.1 nM | COc1ccc(-n2nnnc2C(F)(F)F)cc1[C@H]1COCC2(C1)OCCN(Cc1n[nH]c(O)n1)[C@H]2c1ccc(F)cc1 (stereo partly drawn) | –
17 | 24 nM | Fc1ccc([C@@H]2NCCOC23COC[C@H](c2ccccc2C(F)(F)F)C3)cc1 (stereo partly drawn) | –
18 | 0.56 nM | COc1ccccc1[C@H]1COCC2(C1)OCCN(Cc1n[nH]c(O)n1)[C@H]2c1ccc(F)cc1 (stereo partly drawn) | –
19 | 1.4 nM | CN(C)Cc1nn[nH]c1CN1CCOC2(CCC(c3ccccc3OC(F)(F)F)CO2)C1c1ccc(F)cc1 (stereo not drawn) | ED50 (Gerbillinae): 0.6 mg/kg
20 | – | Fc1ccc([C@@H]2NCCO[C@@]23CC[C@H](c2ccccc2C(F)(F)F)CO3)cc1 | Affinity (Substance-P receptor [4]): 44%
21 | 99 nM | Fc1ccc([C@@H]2NCCOC23COC[C@H](c2ccccc2)C3)cc1 (stereo partly drawn) | –
